Assay results published in the supplement of paper PMC10307832.

How the values were obtained:
Test in all cases: relative viability (nuclei count vs DMSO), 5 days (fraction); higher = more cells survive
MLN4924 + Navitoclax = compound: NS(=O)(=O)OC[C@@H]1C[C@@H](n2ccc3c(N[C@H]4CCc5ccccc54)ncnc32)C[C@@H]1O [MLN4924] + CC1(C)CCC(c2ccc(Cl)cc2)=C(CN2CCN(c3ccc(C(=O)NS(=O)(=O)c4ccc(N[C@H](CCN5CCOCC5)CSc5ccccc5)c(S(=O)(=O)C(F)(F)F)c4)cc3)CC2)C1 [Navitoclax] (partner 0.5 µM)
Method in brief: (§1)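 Each reported value is a median over duplicate plates. It expresses relative viability: treated-well nuclei count divided by vehicle-well nuclei count. Lung cancer cell lines in 1536-well plates were dosed by pin tool a day after seeding, alone with one drug or with a fixed anchor-drug dose plus five library-drug doses (not always all listed) in √10 steps, and nuclei were counted after 5 days.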

MLN4924 + Dasatinib = compound: NS(=O)(=O)OC[C@@H]1C[C@@H](n2ccc3c(N[C@H]4CCc5ccccc54)ncnc32)C[C@@H]1O [MLN4924] + Cc1nc(Nc2ncc(C(=O)Nc3c(C)cccc3Cl)s2)cc(N2CCN(CCO)CC2)n1 [Dasatinib] (partner 0.075 µM)
Method in brief: as §1

MLN4924 + Pemetrexed = compound: NS(=O)(=O)OC[C@@H]1C[C@@H](n2ccc3c(N[C@H]4CCc5ccccc54)ncnc32)C[C@@H]1O [MLN4924] + Nc1nc2[nH]cc(CCc3ccc(C(=O)N[C@@H](CCC(=O)O)C(=O)O)cc3)c2c(=O)[nH]1 [Pemetrexed] (partner 0.2 µM)
Method in brief: as §1

MLN4924 + Foretinib = compound: NS(=O)(=O)OC[C@@H]1C[C@@H](n2ccc3c(N[C@H]4CCc5ccccc54)ncnc32)C[C@@H]1O [MLN4924] + COc1cc2c(Oc3ccc(NC(=O)C4(C(=O)Nc5ccc(F)cc5)CC4)cc3F)ccnc2cc1OCCCN1CCOCC1 [Foretinib] (partner 0.25 µM)
Method in brief: as §1

Cell Line	relative viability (MLN4924 + Navitoclax; first compound 0.04 µM)	relative viability (MLN4924 + Navitoclax; first compound 0.1265 µM)	relative viability (MLN4924 + Navitoclax; first compound 0.4 µM)	relative viability (MLN4924 + Navitoclax; first compound 1.265 µM)	relative viability (MLN4924 + Navitoclax; first compound 4 µM)	relative viability (MLN4924 + Dasatinib; first compound 0.04 µM)	relative viability (MLN4924 + Dasatinib; first compound 0.1265 µM)	relative viability (MLN4924 + Dasatinib; first compound 0.4 µM)	relative viability (MLN4924 + Dasatinib; first compound 1.265 µM)	relative viability (MLN4924 + Dasatinib; first compound 4 µM)	relative viability (MLN4924 + Pemetrexed; first compound 0.04 µM)	relative viability (MLN4924 + Pemetrexed; first compound 0.1265 µM)	relative viability (MLN4924 + Pemetrexed; first compound 0.4 µM)	relative viability (MLN4924 + Pemetrexed; first compound 1.265 µM)	relative viability (MLN4924 + Pemetrexed; first compound 4 µM)	relative viability (MLN4924 + Foretinib; first compound 0.04 µM)	relative viability (MLN4924 + Foretinib; first compound 0.1265 µM)	relative viability (MLN4924 + Foretinib; first compound 0.4 µM)	relative viability (MLN4924 + Foretinib; first compound 1.265 µM)	relative viability (MLN4924 + Foretinib; first compound 4 µM)
201T	1.28	1.21	1.2	0.514	0.556	0.69	0.615	0.598	0.319	0.318	0.291	0.312	0.315	0.287	0.257	1.23	0.842	0.561	0.194	0.175
A549	1.02	0.991	0.197	0.04	0.0449											0.972	0.8	0.508	0.0828	0.0301
A-427	0.468	0.321	0.273	0.221	0.227	0.367	0.529	0.248	0.145	0.179	0.611	0.466	0.333	0.247	0.273	0.742	0.236	0.264	0.185	0.178
ABC-1						0.426	0.433	0.302	0.213	0.237						1.07	1.07	0.301	0.189	0.248
BEN	0.0403	0.0516	0.045	0.0476	0.0518	0.309	0.252	0.198	0.155	0.146	0.602	0.884	0.455	0.28	0.227	0.491	0.307	0.219	0.169	0.129
CAL-12T	1.11	1.11	0.469	0.398	0.204	0.371	0.336	0.332	0.143	0.105	1.06	1.1	0.67	0.636	0.224	1.01	1.03	0.463	0.422	0.181
COR-L23	0.948	0.885	0.568	0.275	0.113	0.487	0.617	0.507	0.154	0.101	0.193	0.199	0.168	0.163	0.132	0.985	0.844	0.644	0.299	0.141
COR-L 105	0.725	0.511	0.326	0.231	0.281	0.398	0.289	0.33	0.222	0.225	0.901	0.914	0.557	0.305	0.363	0.697	0.654	0.396	0.292	0.258
Calu-6	0.667	0.232	0.162	0.119	0.128											0.699	0.322	0.209	0.0838	0.0789
ChaGo-K-1	0.708	0.574	0.394	0.309	0.326	0.414	0.376	0.323	0.184	0.17	0.272	0.258	0.251	0.179	0.181	0.785	0.503	0.336	0.244	0.22
EBC-1	0.348	0.262	0.172	0.112	0.139											0.109	0.15	0.147	0.082	0.0997
EKVX	0.861	0.816	0.352	0.173	0.148	0.588	0.261	0.471	0.193	0.238	0.45	0.411	0.316	0.23	0.174	0.718	0.748	0.59	0.135	0.155
EMC-BAC-2	1.02	0.486	0.271	0.16	0.159	0.584	0.572	0.32	0.191	0.159	0.491	0.537	0.42	0.255	0.277	0.959	0.593	0.248	0.224	0.282
EPLC-272H	0.94	1.02	0.104	0.12	0.141	0.499	0.448	0.071	0.108	0.11	0.242	0.195	0.0979	0.128	0.155	0.582	0.216	0.0552	0.0953	0.109
H3255	0.592	0.434	0.226	0.131	0.175	0.314	0.349	0.296	0.256	0.235	0.603	0.577	0.396	0.263	0.308	0.799	0.746	0.34	0.285	0.278
HARA	0.847	0.601	0.379	0.105	0.115	0.362	0.358	0.311	0.0814	0.0506	0.215	0.164	0.14	0.0838	0.183	0.838	0.537	0.83	0.0708	0.0645
HCC-15	0.526	0.3	0.185	0.0995	0.114	0.498	0.183	0.132	0.0695	0.0802	0.205	0.158	0.0806	0.0787	0.0939	0.688	0.219	0.183	0.109	0.0915

Cell Line	relative viability (MLN4924 + Navitoclax; first compound 0.04 µM)	relative viability (MLN4924 + Navitoclax; first compound 0.1265 µM)	relative viability (MLN4924 + Navitoclax; first compound 0.4 µM)	relative viability (MLN4924 + Navitoclax; first compound 1.265 µM)	relative viability (MLN4924 + Navitoclax; first compound 4 µM)	relative viability (MLN4924 + Dasatinib; first compound 0.04 µM)	relative viability (MLN4924 + Dasatinib; first compound 0.1265 µM)	relative viability (MLN4924 + Dasatinib; first compound 0.4 µM)	relative viability (MLN4924 + Dasatinib; first compound 1.265 µM)	relative viability (MLN4924 + Dasatinib; first compound 4 µM)	relative viability (MLN4924 + Pemetrexed; first compound 0.04 µM)	relative viability (MLN4924 + Pemetrexed; first compound 0.1265 µM)	relative viability (MLN4924 + Pemetrexed; first compound 0.4 µM)	relative viability (MLN4924 + Pemetrexed; first compound 1.265 µM)	relative viability (MLN4924 + Pemetrexed; first compound 4 µM)	relative viability (MLN4924 + Foretinib; first compound 0.04 µM)	relative viability (MLN4924 + Foretinib; first compound 0.1265 µM)	relative viability (MLN4924 + Foretinib; first compound 0.4 µM)	relative viability (MLN4924 + Foretinib; first compound 1.265 µM)	relative viability (MLN4924 + Foretinib; first compound 4 µM)
HCC-44	0.689	0.4	0.265	0.197	0.196						0.653	0.62	0.484	0.455	0.443					
HCC-78	0.91	0.537	0.767	0.158	0.117	0.412	0.307	0.604	0.314	0.152	0.882	0.899	0.918	0.881	0.892	0.583	0.653	0.84	0.247	0.194
IA-LM	0.238	0.159	0.0746	0.0607	0.0616											0.765	0.329	0.135	0.0463	0.0394
LCLC-103H						0.452	0.569	0.653	0.141	0.112	0.477	0.504	0.285	0.315	0.329	0.85	0.896	0.861	0.175	0.15
NCI-H358						0.211	0.31	0.25	0.113	0.0832	0.177	0.16	0.134	0.107	0.128	0.781	0.694	0.397	0.0949	0.094
NCI-H522						0.845	0.863	0.652	0.546	0.437	0.876	0.859	0.612	0.323	0.383					
NCI-H650						0.407	0.418	0.236	0.215	0.193	0.921	0.471	0.213	0.15	0.165	0.863	0.499	0.341	0.197	0.191
NCI-H661						1	1.05	0.556	0.256	0.362	0.773	0.77	0.494	0.426	0.44	0.902	0.776	0.67	0.393	0.399
NCI-H727	0.303	0.255	0.269	0.231	0.19	0.374	0.404	0.305	0.293	0.266						0.863	0.737	0.515	0.285	0.335
NCI-H1299	1.1	0.886	0.472	0.249	0.247											1.01	0.82	0.499	0.33	0.176
NCI-H1563						0.67	0.819	0.714	0.446	0.426	1.08	1.48	0.649	0.495	0.405	1.16	1.21	0.744	0.535	0.55
NCI-H1623						0.626	0.573	0.341	0.227	0.183						0.704	0.536	0.468	0.289	0.294
NCI-H1648											0.748	0.76	0.559	0.321	0.359					
NCI-H1703	0.133	0.14	0.188	0.133	0.124											0.267	0.226	0.19	0.173	0.248
NCI-H1792	0.594	0.46	0.567	0.338	0.109	0.725	0.819	1.03	0.902	0.762	0.776	0.672	1.35	0.296	0.195					
NCI-H2342						0.343	0.344	0.339	0.354	0.355	0.796	0.787	0.815	0.714	0.559	1.17	1.06	1.24	0.76	0.472
SW 900						0.51	0.433	0.576	0.294	0.139		0.397	0.261	0.194	0.168	0.762	0.682	0.315	0.179	0.107
